In ChEMBL document CHEMBL1125208, “Applications of neural networks in quantitative structure-activity relationships of dihydrofolate reductase inhibitors” (J Med Chem, 1991) one finds Log 1/C data, which are given here for ten compounds.

This experiment concerns the target T1, Dihydrofolate reductase (Mus musculus) (UniProt P00375).
T1 sequence (whole entry): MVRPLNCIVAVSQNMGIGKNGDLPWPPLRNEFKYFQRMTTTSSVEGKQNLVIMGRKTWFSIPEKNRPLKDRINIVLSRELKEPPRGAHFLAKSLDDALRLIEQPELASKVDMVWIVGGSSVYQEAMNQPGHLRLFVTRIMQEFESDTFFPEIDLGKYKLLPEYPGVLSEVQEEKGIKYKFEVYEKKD
The experiment is described as follows: Inhibition of dihydrofolate reductase from L1210 leukemia tumors.
Turning to `CC1(C)N=C(N)N=C(N)N1c1ccc(CCCCc2cc(Cl)ccc2S(=O)(=O)F)c(Cl)c1`, the Log 1/C came to 7.06.

For `CC1(C)N=C(N)N=C(N)N1c1ccc(CCc2ccc(Cl)c(S(=O)(=O)F)c2)c(Cl)c1`, the Log 1/C was 8.27. To `CC1(C)N=C(N)N=C(N)N1c1ccc(OCc2cccc(C(=O)Nc3ccc(S(=O)(=O)F)cc3)c2)c(Cl)c1` belongs 6.92; to `CC1(C)N=C(N)N=C(N)N1c1cc(Cl)c(OCC(=O)Nc2ccc(S(=O)(=O)F)cc2)c(Cl)c1`, 7.74. For `CC1(C)N=C(N)N=C(N)N1c1ccc(OCc2ccccc2C(=O)Nc2ccc(S(=O)(=O)F)cc2)c(Cl)c1`, the Log 1/C was 7.24. As to `CC1(C)N=C(N)N=C(N)N1c1ccc(OCCCOc2ccc(S(=O)(=O)F)cc2)c(Cl)c1`, the Log 1/C came to 7.07. In the case of `CC1(C)N=C(N)N=C(N)N1c1ccc(OCc2cccc(C(=O)Nc3cccc(S(=O)(=O)F)c3)c2)c(Cl)c1` it was 7.24; in that of `CC1(C)N=C(N)N=C(N)N1c1ccc(OCC(=O)Nc2cccc(S(=O)(=O)F)c2)c(Cl)c1`, 7.72. For the compound `CC1(C)N=C(N)N=C(N)N1c1ccc(SCC(=O)Nc2ccc(S(=O)(=O)F)cc2)c(Cl)c1`, the Log 1/C is 7.42. `CCN(CC)C(=O)NCc1cccc(N2C(N)=NC(N)=NC2(C)C)c1` gave a Log 1/C of 6.11.
